Measured values: ChEMBL document CHEMBL1151189, “Antimicrobial chlorinated bibenzyls from the liverwort Riccardia marginata” (2004)
The source made the active and inactive calls. The rule behind the calls is not given here.

Experiments:
Candida albicans = assay: Antimicrobial activity against Candida albicans at 30 ug/disk; type: functional; details: read-out: IZ
[1] = tested on: Trichophyton mentagrophytes; assay: Antimicrobial activity against Trichophyton mentagrophytes at 30 ug/disk; type: functional; details: read-out: IZ
Amorphotheca resinae = assay: Antimicrobial activity against Cladosporium resinae at 30 ug/disk; type: functional; details: read-out: IZ
Escherichia coli = assay: Antimicrobial activity against Escherichia coli; type: functional, organism-based
Bacillus subtilis [2] = assay: Antimicrobial activity against Bacillus subtilis at 30 ug/5 mm disk; type: functional
Bacillus subtilis [3] = assay: Antimicrobial activity against Bacillus subtilis at 30 ug/disk; type: functional; details: read-out: IZ

SMILES	zone of inhibition at 30 µg/disc (Candida albicans) [mm]	zone of inhibition at 30 µg/disc [1] [mm]	zone of inhibition at 30 µg/disc (Amorphotheca resinae) [mm]	Activity (Escherichia coli)	inhibition zone (IZ) (Bacillus subtilis [2]) [mm]	zone of inhibition at 30 µg/disc (Bacillus subtilis [3]) [mm]
Oc1c(Cl)cc(Cl)c(CCc2ccccc2)c1Cl	2	7	1	inactive	2	
Oc1c(Cl)ccc(CCc2ccccc2)c1Cl	2	12	2	inactive		2
Oc1cccc(CCc2ccccc2)c1Cl	2	3	0	inactive		2
